From US20160038235A1, “INGENOL MEBUTATE IN COMBINATION WITH LASER THERAPY FOR THE TREATMENT OF HYPE[…] LESIONS” (LEO LABORATORIES LIMITED, priority 2013, published 2016)

Assay: Penetration of ingenol mebutate in static in vitro Franz cell model after fractional Er:YAG laser pre-treatment
Format: in vitro ADME, porcine
Design: Uptake: unit not given here
Details: for Uptake: 21 h
Description: Penetration of Ingenol mebutate was investigated in a static in vitro Franz cell model, using porcine skin. Prior to ingenol mebutate application, the skin was pre-treated with a fractional 2940 Er:YAG laser. Two settings were used based on pulse durations at 125 or 225 μs, and power at 1.3 or 1.7 W, delivering total energies per laser channel at 11 or 128 mJ, respectively. The settings were investigated at 1, 5 and 10% densities. The shape and depth of the micropores were evaluated in a dissecting microscope. After 21 h in the Franz cells, stratum corneum was tape stripped and liquid chromatography-mass spectrometry (LC-MS) was used to analyze IngMeb concentrations in stratum corneum, skin and receptor fluid.

SMILES: C/C=C(/C)C(=O)O[C@H]1C(C)=C[C@]23C(=O)[C@@H](C=C(CO)[C@@H](O)[C@]12O)[C@H]1[C@@H](C[C@H]3C)C1(C)C [ingenol mebutate]
- Uptake (1—No Laser, Dermis): 508
- Uptake (1—No Laser, Epidermis): 606
- Uptake (1—No Laser, Receiver): 0
- Uptake (1—No Laser, SC): 708
- Enhancement Factor (1—No Laser, Viable skin (reference)): 1
- Uptake (1—No Laser, Viable skin): 1114
- Uptake (2—Superficial 1% (approx. 50 μm micropores), Viable skin): 1340
- Uptake (2—Superficial 1%, Dermis): 843
- Uptake (2—Superficial 1%, Epidermis): 558
- Uptake (2—Superficial 1%, Receiver): 122
- Uptake (2—Superficial 1%, SC): 603
- Enhancement Factor (2—Superficial 1%, Viable skin, vs No laser): 1.20
- Uptake (3—Superficial 5%, Dermis): 1584
- Uptake (3—Superficial 5%, Epidermis): 568
- Uptake (3—Superficial 5%, Receiver): 408
- Uptake (3—Superficial 5%, SC): 135
- Uptake (3—Superficial 5%, Viable skin): 2152
- Enhancement Factor (3—Superficial 5%, Viable skin, vs No laser): 1.93
- Uptake (4—Superficial 10%, Dermis): 1801
- Uptake (4—Superficial 10%, Epidermis): 388
- Uptake (4—Superficial 10%, Receiver): 547
- Uptake (4—Superficial 10%, SC): 59
- Uptake (4—Superficial 10%, Viable skin): 2189
- Enhancement Factor (4—Superficial 10%, Viable skin, vs No laser): 1.97
- Uptake (5—Mid-Dermal-1% (approx. 500 μm micropores), Viable skin): 1510
- Uptake (5—Mid-Dermal-1%, Dermis): 1076
- Uptake (5—Mid-Dermal-1%, Epidermis): 366
- Uptake (5—Mid-Dermal-1%, Receiver): 304
- Uptake (5—Mid-Dermal-1%, SC): 369
- Enhancement Factor (5—Mid-Dermal-1%, Viable skin, vs No laser): 1.35
- Uptake (6—Mid-Dermal 5%, Dermis): 1744
- Uptake (6—Mid-Dermal 5%, Epidermis): 386
- Uptake (6—Mid-Dermal 5%, Receiver): 677
- Uptake (6—Mid-Dermal 5%, SC): 127
- Uptake (6—Mid-Dermal 5%, Viable skin): 2126
- Enhancement Factor (6—Mid-Dermal 5%, Viable skin, vs No laser): 1.91
- Uptake (7—Mid-Dermal 10%, Dermis): 1986
- Uptake (7—Mid-Dermal 10%, Epidermis): 260
- Uptake (7—Mid-Dermal 10%, Receiver): 622
- Uptake (7—Mid-Dermal 10%, SC): 9
- Uptake (7—Mid-Dermal 10%, Viable skin): 2224
- Enhancement Factor (7—Mid-Dermal 10%, Viable skin, vs No laser): 2.00
- accumulation in the epidermis, laser compared with no laser pre-treatment (10% density at 50 μm micropores, all densities at 500 μm micropores): decreased ingenol mebutate in the epidermis
- accumulation in stratum corneum (SC), laser pre-treatment compared with no laser pre-treatment (50 μm and 500 μm micropores, decreasing with increasing density): less ingenol mebutate was accumulated
- increase in ingenol mebutate in the dermis with laser pre-treatment compared with no laser pre-treatment (density dependent (1-10%)): 1.7-3.9 fold
- dermis uptake, 10% density compared with 5%, and 500 μm compared with 50 μm micropores (laser pre-treatment): no added benefit was observed
- improved uptake in the epidermis relative to uptake without use of the laser (maximum): ≤ 4 times
- delivery of ingenol mebutate to dermis, increase following laser pre-treatment compared to no laser pre-treatment (maximum increase): ≤ 4 fold
